{
  "source": "paper PMC3119473",
  "about": "(PLoS ONE, 2011)",
  "molecules": {"B1": {"name": "H3K36me3 peptide PATGGVK(me)3KPHRY, N-terminal fluorescein (peptide)", "peptide": "fluorescein-PATGGV[Lys(Me3)]KPHRY", "notes": "histone H3, stretch around K36; source: synthetic peptide (Tufts University Core Services)"}, "B2": {"name": "H3K36me2 peptide PATGGVK(me)2KPHRY, N-terminal fluorescein (peptide)", "peptide": "fluorescein-PATGGV[Lys(Me2)]KPHRY", "notes": "as for B1"}},
  "key": {"[1]": {"target": "T1, PWWP domain of human BRPF1 (residues 1085–1213) (Homo sapiens, UniProt P55201)", "T1 construct": "PWWP domain of human BRPF1 (residues 1085–1213); His-tag (cleaved yes); made in house; host or cells: Escherichia coli BL21 (DE3)-V2R-pRARE2", "T1 sequence (P55201 1085-1213)": "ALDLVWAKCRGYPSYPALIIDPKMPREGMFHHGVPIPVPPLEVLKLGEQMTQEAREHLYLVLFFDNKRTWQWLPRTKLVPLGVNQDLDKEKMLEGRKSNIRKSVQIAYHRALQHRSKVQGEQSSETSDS", "assay": "Fluorescence polarization binding of histone peptides to BRPF1 PWWP domain", "conditions": "N-terminally fluorescein-labeled peptide 40 nM, PWWP domain titrated, 20 mM PIPES pH 6.5, 50 mM NaCl, 0.01% Tween-20, Very weak = binding too weak to be fitted reliably", "procedure": "(§1) DNA fragment encoding the PWWP domain of human BRPF1 (residues 1085–1213), BRPF2 (residues 925–1049), BRPF3 (residues 1056–1195), HDGF2 (residues 1–93), DNMT3A (residues 278–427), DNMT3B (residues 206–355), MUM1 (residues 406–539) WHSC1 (residues 208–368) and WHSC1L1 (residues 247–402) were amplified by PCR and sub-cloned into pET28-MHL vector (Genbank accession number: EF456735) and transformed into Escherichia coli BL21 (DE3)-V2R-pRARE2. The cells were grown in Terrific Broth and the protein was over-expressed by addition of 1 mM isopropyl-1-thio-D-galactopyranoside (IPTG) and incubated overnight at 15°C. Harvested cells were resuspended in 50 mM HEPES, pH 7.4, supplemented with 500 mM NaCl, 2 mM β-mercaptoethanol, 5% glycerol, 0.1% CHAPS. The cells were lysed by passing through a microfluidizer (Microfluidics Corporation) at 20,000 psi. After clarification of the crude extract by high-speed centrifugation, the lysate was loaded onto a 5 ml HiTrap chelating column (GE Healthcare), charged with Ni^2+. The column was washed with 10 column volumes of 20 mM HEPES buffer, pH 7.4, containing 500 mM NaCl, 50 mM imidazole and 5% glycerol, the protein was eluted with 20 mM HEPES buffer, pH 7.4, 500 mM NaCl, 250 mM imidazole, 5% glycerol. The protein was dialyzed against buffer containing 20 mM HEPES, pH 7.4, 500 mM NaCl and 5% glyceral. […]"}, "[2]": {"target": "T2, PWWP domain of human HDGF2 (residues 1–93) (Homo sapiens, UniProt Q7Z4V5)", "T2 construct": "HDGF2 (residues 1–93); His-tag (cleaved yes); made in house; host or cells: Escherichia coli BL21 (DE3)-V2R-pRARE2", "T2 sequence (Q7Z4V5 1-93)": "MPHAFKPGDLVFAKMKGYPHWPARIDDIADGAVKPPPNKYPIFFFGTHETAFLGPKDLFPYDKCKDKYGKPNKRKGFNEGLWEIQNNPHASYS", "assay": "Fluorescence polarization binding of histone peptides to HDGF2 PWWP domain", "conditions": "N-terminally fluorescein-labeled peptide 40 nM, PWWP domain titrated, 20 mM PIPES pH 6.5, 50 mM NaCl, 0.01% Tween-20, Very weak = binding too weak to be fitted reliably", "procedure": "DNA fragment encoding the PWWP domain of human BRPF1 (residues 1085–1213), BRPF2 (residues 925–1049), BRPF3 (residues 1056–1195), HDGF2 (residues 1–93), DNMT3A (residues 278–427), DNMT3B (residues 206–355), MUM1 (residues 406–539) WHSC1 (residues 208–368) and WHSC1L1 (residues 247–402) were amplified by PCR and sub-cloned into pET28-MHL vector (Genbank accession number: EF456735) and transformed into Escherichia coli BL21 (DE3)-V2R-pRARE2. The cells were grown in Terrific Broth and the protein was over-expressed by addition of 1 mM isopropyl-1-thio-D-galactopyranoside (IPTG) and incubated overnight at 15°C. Harvested cells were resuspended in 50 mM HEPES, pH 7.4, supplemented with 500 mM NaCl, 2 mM β-mercaptoethanol, 5% glycerol, 0.1% CHAPS. The cells were lysed by passing through a microfluidizer (Microfluidics Corporation) at 20,000 psi. After clarification of the crude extract by high-speed centrifugation, the lysate was loaded onto a 5 ml HiTrap chelating column (GE Healthcare), charged with Ni^2+. The column was washed with 10 column volumes of 20 mM HEPES buffer, pH 7.4, containing 500 mM NaCl, 50 mM imidazole and 5% glycerol, the protein was eluted with 20 mM HEPES buffer, pH 7.4, 500 mM NaCl, 250 mM imidazole, 5% glycerol. The protein was dialyzed against buffer containing 20 mM HEPES, pH 7.4, 500 mM NaCl and 5% glyceral. TEV protease was added to combined fractions containing target proteins to remove the His-tag. All the proteins except DNMT3A were further purified to homogeneity by ion-exchange chromatography on Source 30S column (10×10) (GE Healthcare), equilibrated with 20 mM PIPES buffer, pH 6.5, and eluted with linear gradient of NaCl up to 500 mM concentration (20CV). For DNMT3A, Source 30Q column was used for ion exchange chromatography. The ^15N-labeled proteins for NMR titration were purified in the same protocols as native ones except that bacteria were grew in M9 minimal medium containing 1 g/L ^15(NH4)2SO4 as the sole nitrogen source. The labeled proteins were concentrated to 0.15–0.3 mM for NMR titration.\nFluorescence polarization assays were performed in 384-well plates, using the Synergy 2 microplate reader from BioTek as described in [43]. All the peptides were synthesized and purified by Tufts University Core Services (Boston, MA, U.S.A.), with the N-terminus labeled with fluorescein. Binding assays were performed in a 10 µl volume at a constant labeled peptide concentration (40 nM), by titrating the PWWP domains (at concentrations ranging from low to high micromolar) into 20 mM PIPES buffer (pH 6.5), containing 50 mM NaCl, 0.01% Tween-20. The data points were fitted to ligand binding function using Sigma Plot software to determine the K d values."}, "[3]": {"target": "T3, PWWP domain of human BRPF2 (residues 925–1049) (Homo sapiens, UniProt O95696)", "T3 construct": "BRPF2 (residues 925–1049); His-tag (cleaved yes); made in house; host or cells: Escherichia coli BL21 (DE3)-V2R-pRARE2", "T3 sequence (O95696 925-1049)": "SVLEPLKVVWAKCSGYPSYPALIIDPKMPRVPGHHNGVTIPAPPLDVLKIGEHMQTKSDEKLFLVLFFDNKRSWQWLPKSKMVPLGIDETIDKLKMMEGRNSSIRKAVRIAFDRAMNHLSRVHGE", "assay": "Fluorescence polarization binding of histone peptides to BRPF2 PWWP domain", "conditions": "N-terminally fluorescein-labeled peptide 40 nM, PWWP domain titrated, 20 mM PIPES pH 6.5, 50 mM NaCl, 0.01% Tween-20, Very weak = binding too weak to be fitted reliably", "procedure": "as §1"}, "[4]": {"target": "T4, N-terminal PWWP domain of human WHSC1L1 (residues 247–402) (Homo sapiens, UniProt Q9BZ95)", "T4 construct": "WHSC1L1 (residues 247–402); His-tag (cleaved yes); made in house; host or cells: Escherichia coli BL21 (DE3)-V2R-pRARE2", "T4 sequence (Q9BZ95 247-402)": "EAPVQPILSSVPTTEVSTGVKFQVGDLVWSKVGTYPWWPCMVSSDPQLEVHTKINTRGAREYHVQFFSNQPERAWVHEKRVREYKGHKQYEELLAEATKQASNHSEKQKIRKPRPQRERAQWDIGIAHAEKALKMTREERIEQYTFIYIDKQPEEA", "assay": "Fluorescence polarization binding of histone peptides to WHSC1L1 N-terminal PWWP domain", "conditions": "N-terminal PWWP domain only, N-terminally fluorescein-labeled peptide 40 nM, PWWP domain titrated, 20 mM PIPES pH 6.5, 50 mM NaCl, 0.01% Tween-20, Very weak = binding too weak to be fitted reliably", "procedure": "as §1, with “glycerol.” for “glycerol. The protein was dialyzed against buffer containing 20 mM HEPES, pH 7.4, 500 mM NaCl and 5% glyceral.”\nFluorescence polarization assays were performed in 384-well plates, using the Synergy 2 microplate reader from BioTek as described in [43]. […]"}, "[5]": {"target": "T5, PWWP domain of human MUM1 (melanoma associated antigen (mutated) 1), residues 406-539 (human, UniProt Q2TAK8 406-539)", "T5 construct": "PWWP domain of human MUM1, residues 406-539; Cloned into pET28-MHL (vector GenBank EF456735); source: E. coli BL21 (DE3)-V2R-pRARE2, purified (Ni2+ chelating column, TEV cleavage, Source 30S ion exchange)", "T5 sequence (Q2TAK8 406-539, stated change not applied)": "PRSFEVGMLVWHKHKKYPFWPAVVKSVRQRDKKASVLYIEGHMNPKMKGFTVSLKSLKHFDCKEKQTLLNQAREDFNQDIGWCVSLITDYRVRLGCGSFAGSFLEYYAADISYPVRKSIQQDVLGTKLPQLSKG", "assay": "fluorescence polarisation; 384-well plates, 10 µl; N-terminal fluorescein peptide constant at 40 nM, PWWP domain titrated (low to high micromolar); 20 mM PIPES pH 6.5, 50 mM NaCl, 0.01% Tween-20", "conditions": "both partners purified"}, "[6]": {"target": "T6, PWWP domain of human HDGF2 (Hepatoma-derived growth factor 2), residues 1-93 (human, UniProt Q7Z4V5 1-93)", "T6 construct": "PWWP domain of human HDGF2, residues 1-93; Cloned into pET28-MHL (vector GenBank EF456735); also called HGDF2; source: E. coli BL21 (DE3)-V2R-pRARE2, purified (Ni2+ chelating column, TEV cleavage, Source 30S ion exchange)", "T6 sequence (Q7Z4V5 1-93)": "as the sequence (Q7Z4V5 1-93) above", "assay": "fluorescence polarisation; 384-well plates, 10 µl; N-terminal fluorescein peptide constant at 40 nM, PWWP domain titrated (low to high micromolar); 20 mM PIPES pH 6.5, 50 mM NaCl, 0.01% Tween-20", "conditions": "both partners purified"}},
  "note": "“Also recorded” adds a separate entry of the source. Square brackets hold non-standard residues; d marks the D form. Ends that are not written are not given here. fluorescein = fluorescein, N-terminal label; Lys(Me3) = C[N+](C)(C)CCCC[C@H](N)C(=O)O; Lys(Me2) = CN(C)CCCC[C@H](N)C(=O)O",
  "data": [
    {"molecule": "AKRHRK(me)3VLRDN [Peptide H4K20me3, histone H4 peptide trimethylated at K20; N-terminus fluorescein-labeled in FP assay]", "values": [
      {"measurement": "BRPF1 Kd(mM)", "setting": "[1]", "value": "Very weak"},
      {"measurement": "HDGF2 Kd(mM)", "setting": "[2]", "value": "weakly; also recorded: Very weak"}
    ]},
    {"molecule": "CC(C)[C@H](NC(=O)CNC(=O)CNC(=O)[C@@H](NC(=O)[C@H](C)NC(=O)[C@@H]1CCCN1)[C@@H](C)O)C(=O)N[C@@H](CCCCN(C)C)C(=O)N[C@@H](CCCCN)C(=O)N1CCC[C@H]1C(=O)N[C@@H](Cc1c[nH]cn1)C(=O)N[C@@H](CCCNC(=N)N)C(=O)N[C@@H](Cc1ccc(O)cc1)C(=O)O", "note": "[Peptide H3K36me2]", "values": [
      {"measurement": "BRPF2 Kd(mM)", "setting": "[3]", "value": "Very weak"},
      {"measurement": "WHSC1L1_N Kd (mM)", "setting": "[4]", "value": "Very weak"}
    ]},
    {"molecule": "CC(C)[C@H](NC(=O)CNC(=O)CNC(=O)[C@@H](NC(=O)[C@H](C)NC(=O)[C@@H]1CCCN1)[C@@H](C)O)C(=O)N[C@@H](CCCC[N+](C)(C)C)C(=O)N[C@@H](CCCCN)C(=O)N1CCC[C@H]1C(=O)N[C@@H](Cc1c[nH]cn1)C(=O)N[C@@H](CCCNC(=N)N)C(=O)N[C@@H](Cc1ccc(O)cc1)C(=O)O", "note": "[Peptide H3K36me3]", "values": [
      {"measurement": "HDGF2 Kd(mM)", "setting": "[2]", "value": "weakly; also recorded: Very weak"},
      {"measurement": "WHSC1L1_N Kd (mM)", "setting": "[4]", "value": "Very weak"}
    ]},
    {"molecule": "AKRHRK(me)2VLRDN [Peptide H4K20me2, histone H4 peptide dimethylated at K20; N-terminus fluorescein-labeled in FP assay]", "values": [
      {"measurement": "BRPF1 Kd(mM)", "setting": "[1]", "value": "Very weak"},
      {"measurement": "HDGF2 Kd(mM)", "setting": "[2]", "value": "Very weak"}
    ]},
    {"molecule": "CC[C@H](C)[C@H](NC(=O)[C@@H](N)CCC(=O)O)C(=O)N[C@@H](C)C(=O)N[C@@H](CCC(N)=O)C(=O)N[C@@H](CC(=O)O)C(=O)N[C@@H](Cc1ccccc1)C(=O)N[C@@H](CCCC[N+](C)(C)C)C(=O)N[C@H](C(=O)N[C@@H](CC(=O)O)C(=O)N[C@@H](CC(C)C)C(=O)N[C@@H](CCCNC(=N)N)C(=O)N[C@@H](Cc1ccc(O)cc1)C(=O)O)[C@@H](C)O", "note": "[Peptide H3K79me3]", "values": [
      {"measurement": "HDGF2 Kd(mM)", "setting": "[2]", "value": "weakly; also recorded: very weak binding affinity"}
    ]},
    {"molecule": "CC[C@H](C)[C@H](NC(=O)[C@@H](N)CCC(=O)O)C(=O)N[C@@H](C)C(=O)N[C@@H](CCC(N)=O)C(=O)N[C@@H](CC(=O)O)C(=O)N[C@@H](Cc1ccccc1)C(=O)N[C@@H](CCCCN(C)C)C(=O)N[C@H](C(=O)N[C@@H](CC(=O)O)C(=O)N[C@@H](CC(C)C)C(=O)N[C@@H](CCCNC(=N)N)C(=O)N[C@@H](Cc1ccc(O)cc1)C(=O)O)[C@@H](C)O", "note": "[Peptide H3K79me2]", "values": [
      {"measurement": "HDGF2 Kd(mM)", "setting": "[2]", "value": "Very weak"}
    ]},
    {"molecule": "B1", "values": [
      {"measurement": "Kd", "setting": "[5]", "value": "100 ± 70", "unit": "µM"}
    ]},
    {"molecule": "B2", "values": [
      {"measurement": "Kd", "setting": "[6]", "value": "1000 ± 200", "unit": "µM"},
      {"measurement": "Kd", "setting": "[5]", "value": "400 ± 100", "unit": "µM"}
    ]}
  ]
}
